Assay type in all cases: in vitro ADME
Data set [1] has as its system CYP3A. The data set is described as follows: Inhibitory effect on P450 enzymes in vitro (human liver microsomes), CYP3A. To be noted: final concentration 10 µM; for inhibition at 5 min, 10 µM: probe midazolam, substrate midazolam, read-out: % inhibition rate CYP3A (midazolam); for inhibition at 10 min, 10 µM: probe testosterone, substrate testosterone, read-out: % inhibition rate CYP3A (testosterone). The protocol: (§1) 1.1 Preparation of compounds: The compounds prepared in the examples were each dissolved in dimethylsulfoxide to give solutions at a concentration of 2 mmol/L.
(§2) 1.2 Test methods: • 1) Incubation system: human liver microsomes, a MgCl2 solution, a phosphate buffer solution, and a substrate solution were each added a 96-well deep-well plate and mixed homogenously. In the final incubation system, the concentration of the human liver microsomes was 0.2 mg/mL, and the final concentrations of the MgCl2 solution and the phosphate buffer solution were 5 mM and 100 mM, respectively. • 2) 1 µL of the substrate solution was added to the incubation system, and the final concentrations of CYP1A2 phenacetin, 2C8 paclitaxel […], 2C19 mephenytoin, 2D6 midazolam, and 3A midazolam substrates were 40 µM (phenacetin), 5 µM (paclitaxel), 50 µM (mephenytoin), 10 µM (mephenytoin), 5 µM (midazolam), and 50 µM […], respectively. • 3) 1 µL of the example compound or vehicle (DMSO) was added to the incubation system, and the incubation system was pre-warmed for 5 min in a 37 °C water bath before starting the reaction with 20 µL of 10 mM NADPH solution.
(§3) 1.3 Sample treatment: Within the designated time (20 min for phenacetin, 10 min for paclitaxel, 20 min for mephenytoin, 20 min for dextromethorphan, 5 min for midazolam, and 10 min for testosterone), 400 µL of methanol containing the internal standard was added to terminate the reaction, and the mixture was vortexed and mixed homogeneously. Then, the deep-well plate was centrifuged at 3220 g and 4 °C for 40 min. 100 µL of the supernatant was transferred into a new plate, and 150 µL of purified water was added. The mixture was mixed homogenously for LC-MS/MS analysis. Table 11. Inhibitory effects of some compounds in the examples on CYP enzymes

The target in data set [2] is T1, CYP2D6 (Homo sapiens, UniProt P10635).
T1 construct: from tissue; host or cells: human liver microsomes
The data set is described as follows: Inhibitory effect on P450 enzymes in vitro (human liver microsomes), CYP2D6. To be noted: probe dextromethorphan, final concentration 10 µM, substrate dextromethorphan, read-out: % inhibition rate CYP2D6 (dextromethorphan). The procedure: as §1, §2, §3

For data set [3], the target named is T2, CYP2C19 (Homo sapiens, UniProt P33261).
T2 construct: from tissue; host or cells: human liver microsomes
The experiment in a line: Inhibitory effect on P450 enzymes in vitro (human liver microsomes), CYP2C19. To be noted: probe mephenytoin, final concentration 10 µM, substrate mephenytoin, read-out: % inhibition rate CYP2C19 (mephenytoin). The procedure:
as §1, §2, §3
In general terms: Microsomes from liver hold many membrane-bound enzymes, among them those of drug oxidation.

Data set [4] in a line: Assay for plasma protein binding rate (equilibrium dialysis), mouse plasma. The conditions noted are these: dialysis 6 h at 37 °C, read-out: Mouse (Fu%). The procedure:
1.1 Preparation of compounds: The compounds prepared in the examples were each dissolved in dimethylsulfoxide to give solutions at a concentration of 10 mmol/L. • 1) The example compounds were each diluted from 10 mmol/L stock solution to 0.2 mmol/L, i.e., 1 µL of the compound was added to 49 µL of DMSO; • 2) 3 µL of 0.2 mmol/L test compounds were added to 597 µL of blood plasma, and the mixtures were vortexed at 1000 rpm for 2 min; • 3) 50 µL of the plasma containing the drug in 2) was taken, 50 µL of PBS was added, and 300 µL of methanol internal standard* was added to serve as a sample T0; • 4) 120 µL of the plasma containing the drug in 2) was taken and added to one side of an HTD device membrane, and 120 µL of PBS was added to the other side of the membrane; a breathable film was covered, and the plasma and the residual sample in 2) were balanced at 37 °C (100 rpm and 5% CO2) for 6 h; • 5) 50 µL of the dialyzed plasma side sample was taken, 50 µL of PBS was added, and 300 µL of methanol internal standard* was added to serve as a sample P; • 6) 50 µL of the dialyzed PBS side sample was taken, 50 µL of blank plasma was added, and 300 µL of methanol internal standard* was added to serve as a sample B; • 7) 50 µL of the plasma containing the drug in 2) was taken, 50 µL of PBS was added, and 300 µL of methanol internal standard* was added to serve as a sample T6; • 8) All samples were vortexed, mixed homogeneously, and then centrifuged at 3220 g for 40 min at 4 °C; • 9) 100 µL of the supernatant and 100 µL of purified water were mixed homogenously for liquid chromatography-mass spectrometry.
An internal standard method was used, and the plasma protein binding rate, recovery rate, and residual percentage were calculated by using Excel according to the ratio of the peak area of the sample to the peak area of the internal standard. Free rate(%) = (RatioB)/(RatioP) × 100% [formula] Binding rate(%) = 100%−Free rate% [formula] Recovery rate(%) = (RatioB + RatioP)/(RatioT0) × 100% [formula] Remaining percentage(%) = (RatioT6)/(RatioT0) × 100% [formula]
RatioB: a ratio of the peak area of the test substance on the PBS side to the peak area of the internal standard; RatioP: a ratio of the peak area of the test substance on the plasma side to the peak area of the internal standard; RatioT6: a ratio of the peak area of the sample after incubation with the test substance for 6 h to the peak area of the internal standard; RatioT0: a ratio of the peak area of the sample after incubation with the test substance for 0 h to the peak area of the internal standard. Table 8. Plasma protein binding rate (Fu%) data for various species of example compounds
(In general: In equilibrium dialysis free small molecules cross a membrane that holds back macromolecules.)

In patent publication EP4692094A1 (Beijing Konruns Pharmaceutical Co., Ltd., priority 2023, dated 2024) one finds inhibition and fraction unbound data, which are given here for five compounds.

Broadly, the inhibition is the change of the read-out against control, counted positive when it falls.

T1 sequence (P10635 whole entry): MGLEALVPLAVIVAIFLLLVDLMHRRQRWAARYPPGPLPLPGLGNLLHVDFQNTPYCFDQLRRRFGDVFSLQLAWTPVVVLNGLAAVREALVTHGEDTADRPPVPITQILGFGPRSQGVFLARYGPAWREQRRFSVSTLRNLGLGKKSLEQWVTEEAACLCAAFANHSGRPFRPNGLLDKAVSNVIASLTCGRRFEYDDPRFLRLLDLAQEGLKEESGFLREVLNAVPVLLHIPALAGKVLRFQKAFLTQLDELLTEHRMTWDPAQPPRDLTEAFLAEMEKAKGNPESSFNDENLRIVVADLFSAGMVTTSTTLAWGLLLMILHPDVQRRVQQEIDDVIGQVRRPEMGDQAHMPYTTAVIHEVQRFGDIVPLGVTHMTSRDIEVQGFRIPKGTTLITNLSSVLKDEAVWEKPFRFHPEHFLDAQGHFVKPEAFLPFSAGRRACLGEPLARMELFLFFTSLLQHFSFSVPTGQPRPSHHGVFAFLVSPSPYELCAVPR
T2 sequence (P33261 whole entry): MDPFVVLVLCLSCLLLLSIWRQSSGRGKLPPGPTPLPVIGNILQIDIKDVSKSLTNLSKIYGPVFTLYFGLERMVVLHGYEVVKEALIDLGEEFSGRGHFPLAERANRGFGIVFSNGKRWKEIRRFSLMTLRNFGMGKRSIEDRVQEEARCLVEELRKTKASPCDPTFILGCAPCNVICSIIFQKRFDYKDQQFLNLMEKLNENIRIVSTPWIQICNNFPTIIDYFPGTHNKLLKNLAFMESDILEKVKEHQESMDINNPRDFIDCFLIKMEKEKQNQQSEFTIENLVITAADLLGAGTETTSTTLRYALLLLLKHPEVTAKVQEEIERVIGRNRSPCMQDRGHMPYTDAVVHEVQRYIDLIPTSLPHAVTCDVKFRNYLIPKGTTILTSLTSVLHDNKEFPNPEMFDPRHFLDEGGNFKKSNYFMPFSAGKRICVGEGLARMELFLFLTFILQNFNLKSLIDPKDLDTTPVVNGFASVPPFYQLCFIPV

In the case of `COc1cc2c(cc1S(=O)(=O)Nc1noc3cc(Cn4cccn4)nc(OC)c13)OCC2` [Example 59, N-(6-((1H-Pyrazol-1-yl)methyl)-4-methoxyisoxazolo[4,5-c]pyridin-3-yl)-5-methoxy-2,3-dihydrobenzofuran-6-sulfonamide], in data set [1], the inhibition at 5 min, 10 µM is -12.1% and the inhibition at 10 min, 10 µM was -7.66%. In addition, the inhibition at 20 min, 10 µM in data set [2] was 4.62%. The inhibition at 20 min, 10 µM in data set [3] came to 7.62%. Also, the fraction unbound at 6 h, 1 µM in data set [4] was determined as 0.05.

On to `COc1ccc2c(c1S(=O)(=O)Nc1noc3cc(Cn4cccn4)nc(OC)c13)OCC2` [Example 9, N-(6-((1H-Pyrazol-1-yl)methyl)-4-methoxyisoxazolo[4,5-c]pyridin-3-yl)-6-methoxy-2,3-dihydrobenzofuran-7-sulfonamide], for which the fraction unbound at 6 h, 1 µM in data set [4] stood at 0.0478.

On to `COc1cc2c(cc1S(=O)(=O)Nc1noc3cc(Cn4cccn4)nc(OC)c13)CCCO2` [Example 76, N-(6-((1H-Pyrazol-1-yl)methyl)-4-methoxyisoxazolo[4,5-c]pyridin-3-yl)-7-methoxy-3,4-dihydro-1H-benzopyran-6-sulfonamide], for which the fraction unbound at 6 h, 1 µM in data set [4] amounted to 0.0072.

Consider `COc1ccc2ccoc2c1S(=O)(=O)Nc1noc2cc(Cn3cccn3)nc(OC)c12` [Example 10, N-(6-((1H-Pyrazol-1-yl)methyl)-4-methoxyisoxazolo[4,5-c]pyridin-3-yl)-6-methoxybenzofuran-7-sulfonamide], for which, in data set [1], the inhibition at 5 min, 10 µM was -4.28% and the inhibition at 10 min, 10 µM was -2.93%. Besides, in data set [2], the inhibition at 20 min, 10 µM amounted to 6.03%. Besides, in data set [3], the inhibition at 20 min, 10 µM came out at 9.54%. For the same compound, in data set [4], the fraction unbound at 6 h, 1 µM came to 0.0512.

Turning to `COc1cc2c(cc1S(=O)(=O)Nc1noc3cc(Cn4cccn4)nc(OC)c13)CCCC2` [Example 2, N-(6-((1H-Pyrazol-1-yl)methyl)-4-methoxyisoxazolo[4,5-c]pyridin-3-yl)-3-methoxy-5,6,7,8-tetrahydronaphthalene-2-sulfonamide], the inhibition at 5 min, 10 µM in data set [1] was -5.22%. In data set [1], the inhibition at 10 min, 10 µM stood at 5.84%. Further, the inhibition at 20 min, 10 µM turned out to be 5.38% in data set [2] and 42.8% in data set [3]. Moreover, the fraction unbound at 6 h, 1 µM in data set [4] amounted to 0.0065.
